{
  "source": "patent US7556957B2",
  "about": "“Coronavirus-like particles comprising functionally deleted genomes” (Stichting voor de Technische Wetenschappen, priority 2001, dated 2009)",
  "key": {"[1]": {"system": "MHV-A59 spike mediated cell-cell fusion in LR7 cells", "experiment": "Cell-cell fusion inhibition plaque assay", "type": "cell-based, mouse hepatitis virus (MHV) strain A59", "experimental": "FIG. 12: Inhibition of cell-cell fusion by HR2 peptide. After inoculation of parallel cultures of LR7, cells with MHV-A59 cells were overlaid with agar medium containing different concentrations of HR2 peptide and plaques were counted the following day.\n(§1) The potency of the HR2 peptide in inhibiting viral infection was determined using the recombinant MHV-EFLM expressing the firefly luciferase. Confluent monolayers of LR7 cells in 96-well plates were inoculated at 37° C. in DMEM at a multiplicity of infection of 5 for 1 hour in the presence of varying concentrations of peptide ranging from 0.4-50 μM. After 1 hour, cells were washed with DMEM and medium was replaced by peptide-free DMEM. At 5 hours post-infection cells were lysed for 15 minutes at RT in 50 μl Lysis buffer, according to the manufacturer's protocol (Luciferase Assay System, Promega). Upon mixing of 10 μl cell lysate with 40 μl substrate, luciferase activity was measured immediately using a Wallace Betaluminometer. […]"}, "[2]": {"system": "MHV-EFLM infection of LR7 cells", "experiment": "Virus-cell entry inhibition assay with luciferase-expressing MHV-EFLM", "type": "cell-based, mouse hepatitis virus (MHV) strain A59", "conditions": "peptide concentration 50 μM", "experimental": "FIG. 11: Inhibition of MHV infection by the HR2 peptide. LR7 cells were inoculated with the virus MHV-EFLM in the presence of different concentrations of HR2 peptide or, as a control, a peptide corresponding to amino acids 1003-1048 of the viral S protein. After one hour of inoculation, cells were washed and incubated further in the absence of peptide. To evaluate the success of the infection, cells were analyzed at 4 hours post-infection for luciferase expression. In the figure luciferase activity is plotted against the different peptide concentrations used.\nas §1"}},
  "note": "Where no end group is shown, it is not given here.",
  "data": [
    {"sequence": "GPIEGRDLSLDFEKLNVTLLDLTYEMNRIQDAIKKLNESYINLKE [HR2 peptide]", "values": [
      {"measurement": "formation of plaques (cell-cell fusion)", "setting": "[1]; 0.08 μM HR2 peptide in agar overlay", "result": "only tiny plaques"},
      {"measurement": "formation of plaques (cell-cell fusion)", "setting": "[1]; HR2 peptide in agar overlay at concentrations of up to 0.4 μM", "result": "completely abolished"},
      {"measurement": "inhibition of viral infection (entry)", "setting": "[2]", "result": "inhibited virtually completely"}
    ]}
  ]
}
